IC50 data for 2 compounds are collected here from ChEMBL document CHEMBL1201862, “PubChem BioAssay data set” (2004).

Calls of active or inactive are those of the source. Cut-off read from the data, not from the text of the source: actives have a measured IC50 and inactives only a lower limit.

The target of this assay is Envelope glycoprotein gp160 (Human immunodeficiency virus 1, UniProt Q6QLK5). Put plainly: inhibitors of HIV fusion peptide binding, primary screen, biochemical, uHTS, fluorescence dequenching (AID 1986).
Chain of Envelope glycoprotein gp160 (Q6QLK5 whole entry, the tested form may be a part): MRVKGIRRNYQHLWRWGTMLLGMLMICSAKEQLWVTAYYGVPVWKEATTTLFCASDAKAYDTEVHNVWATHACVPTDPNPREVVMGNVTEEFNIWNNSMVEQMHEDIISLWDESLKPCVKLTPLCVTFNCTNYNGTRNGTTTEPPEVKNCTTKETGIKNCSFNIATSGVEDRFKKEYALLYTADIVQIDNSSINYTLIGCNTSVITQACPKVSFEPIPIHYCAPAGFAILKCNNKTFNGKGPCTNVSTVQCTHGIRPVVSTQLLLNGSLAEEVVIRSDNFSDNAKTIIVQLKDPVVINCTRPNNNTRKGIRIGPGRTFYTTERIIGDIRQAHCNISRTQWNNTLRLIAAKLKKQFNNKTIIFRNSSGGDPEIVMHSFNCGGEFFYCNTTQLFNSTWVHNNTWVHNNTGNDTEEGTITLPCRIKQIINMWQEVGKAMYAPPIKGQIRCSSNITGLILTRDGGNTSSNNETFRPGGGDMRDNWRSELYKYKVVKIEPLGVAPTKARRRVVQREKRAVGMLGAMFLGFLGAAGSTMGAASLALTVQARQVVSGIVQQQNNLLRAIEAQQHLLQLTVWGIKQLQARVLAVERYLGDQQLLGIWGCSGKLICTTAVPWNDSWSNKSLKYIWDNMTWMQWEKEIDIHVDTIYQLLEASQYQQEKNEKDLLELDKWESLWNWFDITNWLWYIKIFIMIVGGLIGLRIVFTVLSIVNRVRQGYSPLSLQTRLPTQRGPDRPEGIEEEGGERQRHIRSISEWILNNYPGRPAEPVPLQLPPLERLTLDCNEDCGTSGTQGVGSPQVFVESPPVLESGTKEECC

For `O=C(O)c1[nH]c2ccccc2c1C(c1cc(Br)ccc1O)c1c(C(=O)O)[nH]c2ccccc12`, the half-maximal inhibitory concentration (IC50) (as a rule, the concentration that gives 50% inhibition) is 4.11 µM (active). The result for `COc1cc(/C=N/Nc2ccc(Cl)c(C(=O)O)c2)ccc1OC(=O)c1ccc(F)cc1` reads 26.8 µM (active).
